According to patent publication US6046219A, “Method for the treatment of conditions mediated by collagen formation together with cell proliferation by application of inhibitors of protein hydroxylation” (Cornell Research Foundation, Inc., priority 1997, dated 2000):
“Also recorded” adds a separate entry of the source.

What was measured:
Type in all cases: cell-based
[1] = target: T1, cellular human deoxyhypusyl hydroxylase (Homo sapiens, UniProt Q9BU89); assay: Cellular human deoxyhypusyl hydroxylase (DOHH assay, 3H-spermidine labeling)
T1 construct: endogenous in cells; host or cells: cultured human cells (smooth muscle cells, B-lymphocytes)
T1 sequence (Q9BU89 1-302): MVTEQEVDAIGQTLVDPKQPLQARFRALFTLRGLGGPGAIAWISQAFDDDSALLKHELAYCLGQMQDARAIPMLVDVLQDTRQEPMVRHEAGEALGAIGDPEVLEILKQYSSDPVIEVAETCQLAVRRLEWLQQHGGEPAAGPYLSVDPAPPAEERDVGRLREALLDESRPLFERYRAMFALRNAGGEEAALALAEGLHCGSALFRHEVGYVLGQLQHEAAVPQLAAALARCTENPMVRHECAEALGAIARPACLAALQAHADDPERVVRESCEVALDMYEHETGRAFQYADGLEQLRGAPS
Description: The inhibitory action of the substances according to the invention, for example on collagen secretion or cell proliferation, can be tested in direct assays of the enzymes mediating the pivotal protein hydroxylations for these biological processes, such as prolyl 4-hydroxylase and deoxyhypusyl hydroxylase. This entails the enzymatic hydroxylation of the appropriate protein precursor, either by the cellular or the purified enzyme, in the presence or absence of compounds of Formulae (I) or (II), with concomitant determination of co-substrate utilization by these enzymes or subsequent isolation of the hydroxylated amino acid and its unhydroxylated precursor. In this manner, the inhibitory potency of any given compound can be measured in the cell-free system, in cell culture, or in tissue, and is expressed as the inhibitory dose that gives a 50% reduction of the enzyme-mediated reaction (ID50). Enzyme is tested in analogy to the method of A. Abbruzzese, H. M. Hanauske-Abel, et al., Biochem. Biophys. Acta, 1077, 159-166 (1991) and of K. Majamaa, H. M. Hanauske-Abel, et al., Eur. J. Biochem. 138, 239-245 (1984), which are hereby incorporated by reference. Table III lists the ID50 values of some of the compounds according to the invention, using purified human prolyl 4-hydroxylase and cellular human deoxyhypusyl hydroxylase as representative protein hydroxylases.
The inhibiting effect of hydroxypyridones on the eIF-5A-hydroxylating enzyme was studied in cultured human cells (i.e. smooth muscle cells, B-lymphocytes).
The cellular conversion of the precursor deoxyhypusine to the hydroxylated hypusine in cells was examined, after preincubation with the inhibitor for 60 minutes, by labeling the human cells with ^3 H-spermidine (5 μCi/ml) in 25 cm^2 flasks (1×10^6 cells/flask) for 24 hours prior to cell lysis, precipitation with 10% TCA containing 1 mM each of putrescine, spermidine, and spermine, and hydrolysis in 6 N HCl at 110° C. for 16 hours. The hydrolysate was analyzed for labeled amino acids on an amino acid analyzer by published methods (Park et al., J. Biol. Chem., 257:7217-7222 (1982), which is hereby incorporated by reference). The retention of purified hypusine and deoxyhypusine was determined from standards.

type I procollagen = assay: Type I procollagen secretion by SMC; settings: human SMC, FIG. 6b
Description: (§1) Type III collagen biosynthesis (FIG. 6a) was assessed by a commercial radioimmunoassay using a monoclonal antibody to the N-terminal propeptide of type III procollagen. Plasminogen activator inhibitor-1 ("PAI-1") activity was measured by a standard enzymatic method. Type I collagen biosynthesis (FIG. 6b) was assessed by routine Western blot using a monoclonal antibody to the C-terminal propeptide of type I procollagen.
(§2) SMC or MRC-5 cells (3-5×10^6 cells/35 mm well), incubated in serum-free DMEM containing 50 μg/ml sodium ascorbate and 20 μg/ml β-aminopropionitrile, are exposed for 24 hours to increasing concentrations of hydroxypyridones. After centrifugation, to clear any cellular debris, these supernatants are used to determine the levels of type I and III procollagens, using commercially available radioimmunoassays (Incstar and Behringwerke, respectively).
(§3) Human SMC (3-5×10^5 cells/35 mm well), grown to confluency and incubated in serum-free DMEM containing 50 μg/ml sodium ascorbate and 20 μg/ml β-aminopropionitrile, were exposed for 24 hours to increasing concentrations of test compounds. […] Type I procollagen biosynthesis also was quantified by Western analysis in the following manner. […] Immunoblots were scanned with a UMAX UC630 flatbed scanner and quantified densitometrically using standard software.

[2] = tested on: prolyl 4-hydroxylase in human lung fibroblast line MRC-5; assay: Assay of cellular human prolyl 4-hydroxylase / collagen secretion in MRC-5 lung fibroblasts; settings: human lung fibroblasts MRC-5, FIG. 5a-f
Description: FIGS. 5a-f show, as percent of uninhibited controls, the suppressive effect of six hydroxypyridone compounds on prolyl 4-hydroxylation in a human lung fibroblast line ("MRC-5"). Those cells were pretreated with inhibitor for 30 minutes prior to routine metabolic labeling with tritiated proline ("Pro") for 24 hours, followed by standard hydrolysis and separation of amino acids from both supernatant and cells for determination of proline conversion into hydroxyproline ("Hyp").
The established human lung fibroblast line MRC-5 was used, maintained, and propagated by routine cell culture techniques.
SMC or MRC-5 cells (3-5×10^6 cells/35 mm well) were labeled in the presence or absence of hydroxypyridones, with ^3 H-proline (Pro) (4 μCi/ml) for 24 hours in proline- and serum-free Dulbecco […] ("DMEM") containing 50 μg/ml sodium ascorbate and 20 μg/ml β-aminopropionitrile. […] The hydrolysate was derivatized with phenylisothiocyanate and analyzed for ^3 H-proline ("Pro") and ^3 H-hydroxyproline ("Hyp") by HPLC on a reverse-phase C18 column, using an automated HPLC system (Hewlett-Packard, Wilmington, Del.) with an in-line scintillation counter (Inus Systems, Inc., Tampa, Fla.). The position of proline and hydroxyproline was determined from tritiated standards.

type III procollagen = assay: Type III procollagen secretion by SMC; settings: human SMC, FIG. 6a
Description: as §1, §2, §3

## N[C@@H](Cn1ccc(=O)c(O)c1)C(=O)O [L-Mimosine]
[1]; FIG. 3, assayed in vitro
  inhibition of deoxyhypusyl hydroxylase: directly inhibit
[1]; cellular human enzyme, inhibitory dose that gives 50% reduction of the enzyme-mediated reaction, unit assumed
  Deoxyhypusyl hydroxylase ID50 (cellular): 65 µM
Type I procollagen
  inhibition of secretion of procollagen type I: potent inhibitor; also recorded: selectively suppressive effect
[2]
  secretion of hydroxyproline-containing proteins (collagen secretion): selectively inhibited
Type III procollagen
  inhibition of secretion of procollagen type III: potent inhibitor; also recorded: selectively suppressive effect
